According to patent US8440700B2, “Substituted aryloxazoles and their use” (Bayer Intellectual Property GmbH, priority 2007, dated 2013):

Key:
Format in all cases: cell-based
adenosine A2b receptor = target: T1, adenosine A2b receptor (Homo sapiens, UniProt P29275); experiment: Indirect determination of adenosine agonism by way of gene expression (luciferase, CHO cells), A2b; conditions: CHO cells stably transfected with A2b receptor cDNA; 50% of maximum luciferase stimulation
T1 construct: expressed in transfected cells; host or cells: CHO (Chinese Hamster Ovary)
T1 sequence (P29275 1-332): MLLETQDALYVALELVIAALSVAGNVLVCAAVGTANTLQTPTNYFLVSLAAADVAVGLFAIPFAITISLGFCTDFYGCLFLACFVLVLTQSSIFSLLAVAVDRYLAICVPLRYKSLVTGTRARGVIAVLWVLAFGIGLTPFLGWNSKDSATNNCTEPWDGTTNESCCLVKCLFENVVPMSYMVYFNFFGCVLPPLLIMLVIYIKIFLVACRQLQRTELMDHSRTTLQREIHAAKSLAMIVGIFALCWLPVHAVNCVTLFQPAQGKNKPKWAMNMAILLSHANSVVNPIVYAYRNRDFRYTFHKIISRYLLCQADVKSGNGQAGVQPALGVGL
Excerpt: (§1) B-1. Indirect Determination of the Adenosine Agonism by Way of Gene Expression
(§2) Cells of the CHO (Chinese Hamster Ovary) permanent cell line are transfected stably with the cDNA for the adenosine receptor subtypes A1, A2a and A2b. The adenosine A1 receptors are coupled to the adenylate cyclase by way of Gi proteins, while the adenosine A2a and A2b receptors are coupled by way of Gs proteins. In correspondence with this, the formation of cAMP in the cell is inhibited or stimulated, respectively. After that, expression of the luciferase is modulated by way of a cAMP-dependent promoter. The luciferase test is optimized, with the aim of high sensitivity and reproducibility, low variance and good suitability for implementation on a robot system, by varying several test parameters, such as cell density, duration of the growth phase and the test incubation, forskolin concentration and medium composition. The following test protocol is used for pharmacologically characterizing cells and for the robot-assisted substance screening:
(§3) The stock cultures are grown, at 37° C. and under 5% CO2, in DMEM/F12 medium containing 10% FCS (foetal calf serum) and in each case split 1:10 after 2-3 days. The test cultures are seeded in 384-well plates with 2000 cells per well and grown at 37° C. for approx. 48 hours. The medium is then replaced with a physiological sodium chloride solution (130 mM sodium chloride, 5 mM potassium chloride, 2 mM calcium chloride, 20 mM HEPES, 1 mM magnesium chloride hexahydrate, 5 mM sodium bicarbonate, pH 7.4). The substances to be tested, which are dissolved in DMSO, are pipetted into the test cultures (maximum final concentration of DMSO in the test mixture: 0.5%) in a dilution series of from 5×10^−11M to 3×10^−6M (final concentration). 10 minutes later, forskolin is added to the A1 cells and all the cultures are subsequently incubated at 37° C. for four hours. After that, 35 μl of a solution which is composed of 50% lysis reagent (30 mM disodium hydrogenphosphate, 10% glycerol, 3% TritonX100, 25 mM TrisHCl, 2 mM dithiotreitol (DTT), pH 7.8) and 50% luciferase substrate solution (2.5 mM ATP, 0.5 mM luciferin, 0.1 mM coenzyme A, 10 mM tricine, 1.35 mM magnesium sulphate, 15 mM DTT, pH 7.8) are added to the test cultures, which are shaken for approx. 1 minute and the luciferase activity is measured using a camera system. The EC50 values are determined, i.e., the concentrations at which 50% of the luciferase answer is inhibited in the case of the A1 cell, and, respectively, 50% of the maximum stimulation with the corresponding substance is achieved in the case of the A2b and A2a cells. […] Pharmacol., 357 (1998), 1-9).
(§4) Table 18 below lists the EC50 values of representative working examples for the receptor stimulation on adenosine A1, A2a and A2b receptor subtypes: […]

adenosine A1 receptor = target: T2, adenosine A1 receptor (Homo sapiens, UniProt P30542); experiment: Indirect determination of adenosine agonism by way of gene expression (luciferase, CHO cells), A1; conditions: CHO cells stably transfected with A1 receptor cDNA; 1 μM forskolin; 50% inhibition of luciferase answer
T2 construct: expressed in transfected cells; host or cells: CHO (Chinese Hamster Ovary)
T2 sequence (P30542 1-326): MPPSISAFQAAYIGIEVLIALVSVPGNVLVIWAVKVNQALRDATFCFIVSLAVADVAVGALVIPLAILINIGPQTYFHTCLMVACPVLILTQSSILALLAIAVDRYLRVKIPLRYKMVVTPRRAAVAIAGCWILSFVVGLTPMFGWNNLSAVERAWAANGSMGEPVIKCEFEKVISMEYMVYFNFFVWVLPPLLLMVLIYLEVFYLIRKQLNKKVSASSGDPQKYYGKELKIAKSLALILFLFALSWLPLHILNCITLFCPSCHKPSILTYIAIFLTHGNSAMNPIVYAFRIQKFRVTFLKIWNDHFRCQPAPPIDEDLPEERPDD
Excerpt: as §1, §2, §3, §4

adenosine A2a receptor = target: T3, adenosine A2a receptor (Homo sapiens, UniProt P29274); experiment: Indirect determination of adenosine agonism by way of gene expression (luciferase, CHO cells), A2a; conditions: CHO cells stably transfected with A2a receptor cDNA; 50% of maximum luciferase stimulation
T3 construct: expressed in transfected cells; host or cells: CHO (Chinese Hamster Ovary)
Excerpt: as §1, §2, §3, §4

T3 sequence (P29274 whole entry): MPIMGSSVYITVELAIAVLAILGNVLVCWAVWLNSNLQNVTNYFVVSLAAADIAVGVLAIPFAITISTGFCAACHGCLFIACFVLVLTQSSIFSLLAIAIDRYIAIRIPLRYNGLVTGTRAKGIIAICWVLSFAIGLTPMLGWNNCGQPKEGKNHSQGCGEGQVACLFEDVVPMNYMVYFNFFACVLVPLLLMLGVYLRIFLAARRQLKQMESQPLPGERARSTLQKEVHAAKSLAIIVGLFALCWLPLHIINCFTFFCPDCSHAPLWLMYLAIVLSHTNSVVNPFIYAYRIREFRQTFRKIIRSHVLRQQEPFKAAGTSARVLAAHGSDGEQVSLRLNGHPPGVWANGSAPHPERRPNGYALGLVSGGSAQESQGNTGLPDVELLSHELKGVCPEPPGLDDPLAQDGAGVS

SMILES | EC50 (adenosine A2b receptor) [µM] | EC50 (adenosine A1 receptor) [nM] | EC50 (adenosine A2a receptor) [µM]
N#Cc1c(N)nc(SCc2ncoc2-c2ccc(Cl)cc2)c(C#N)c1-c1ccc(OC[C@@H](O)CO)cc1 [Example 93] | 0.336 | 8.9 | 0.522
Cc1oc(-c2ccc(F)cc2)nc1CSc1nc(N)c(C#N)c(-c2ccc(OC[C@@H](O)CO)cc2)c1C#N [Example 50] | 0.118 | 0.4 | –
COC(=O)c1ccc(-c2nc(CSc3nc(N)c(C#N)c(-c4ccc(OC[C@@H](O)CO)cc4)c3C#N)c(C)o2)cc1 [Example 57] | 0.044 | 0.2 | 0.525
N#Cc1c(N)nc(SCc2coc(-c3ccc(F)c(Cl)c3)n2)c(C#N)c1-c1ccc(OCCO)cc1 [Example 10] | 0.922 | 0.5 | 1.13
N#Cc1c(N)nc(SCc2coc(-c3ccc(Cl)cc3)n2)c(C#N)c1-c1ccc(OC[C@@H](O)CO)cc1 [Example 48, 2-Amino-6-({[2-(4-chlorophenyl)-1,3-oxazol-4-yl]methyl}sulfanyl)-4-(4-{[(2S)-2,3-dihydroxypropyl]oxy}phenyl)pyridine-3,5-dicarbonitrile] | 0.0044 | 0.3 | 0.138
COc1ccc(-c2nc(CSc3nc(N)c(C#N)c(-c4ccc(OC[C@H](O)CO)cc4)c3C#N)c(C)o2)cc1 [Example 66] | 0.37 | 0.9 | 0.575
N#Cc1c(N)nc(SCc2coc(-c3ccc(F)c(F)c3)n2)c(C#N)c1-c1ccc(OCCO)cc1 [Example 11] | 0.845 | 0.3 | 0.703
N#Cc1c(N)nc(SCc2coc(-c3ccc(F)cc3)n2)c(C#N)c1-c1ccc(OC[C@@H](O)CO)cc1 [Example 81] | 0.02 | 0.3 | 0.064
Cc1oc(-c2ccc(Cl)cc2)nc1CSc1nc(N)c(C#N)c(-c2ccc(OC[C@@H](O)CO)cc2)c1C#N [Example 60] | 0.236 | 0.3 | –
N#Cc1c(N)nc(SCc2coc(-c3ccc(Cl)cc3)n2)c(C#N)c1-c1ccc(OC[C@H](O)CO)cc1 [Example 49, 2-Amino-6-({[2-(4-chlorophenyl)-1,3-oxazol-4-yl]methyl}sulfanyl)-4-(4-{[(2R)-2,3-dihydroxypropyl]oxy}phenyl)pyridine-3,5-dicarbonitrile] | 0.1 | 0.4 | 0.3
Cc1cc(-c2nc(CSc3nc(N)c(C#N)c(-c4ccc(OCCO)cc4)c3C#N)co2)ccc1F [Example 31] | 0.315 | 0.9 | 0.467
Cc1oc(-c2ccc(C(=O)O)cc2)nc1CSc1nc(N)c(C#N)c(-c2ccc(OCC(C)(C)O)cc2)c1C#N [Example 95, 4-{4-[({6-Amino-3,5-dicyano-4-[4-(2-hydroxy-2-methylpropoxy)phenyl]pyridin-2-yl}thio)methyl]-5-methyl-1,3-oxazol-2-yl}benzoic acid] | – | 0.5 | –
Cc1cc(-c2nc(CSc3nc(N)c(C#N)c(-c4ccc(OC[C@H](O)CO)cc4)c3C#N)co2)ccc1Cl [Example 80] | 0.089 | 0.8 | 0.461
Cc1oc(-c2ccccc2F)nc1CSc1nc(N)c(C#N)c(-c2ccc(OC[C@@H](O)CO)cc2)c1C#N [Example 61] | 0.221 | 0.7 | 0.439

The next lines start with the values.

EC50 (adenosine A2b receptor) [µM] | EC50 (adenosine A1 receptor) [nM] | EC50 (adenosine A2a receptor) [µM] | SMILES
2.25 | 4.1 | – | N#Cc1c(NCCO)nc(SCc2coc(-c3ccc(Cl)cc3)n2)c(C#N)c1-c1ccc(OCCO)c(F)c1 [Example 122, 2-({[2-(4-Chlorophenyl)-1,3-oxazol-4-yl]methyl}sulfanyl)-4-[3-fluoro-4-(2-hydroxyethoxy)phenyl]-6-[(2-hydroxyethyl)amino]pyridine-3,5-dicarbonitrile]
1.09 | 0.2 | 1.44 | N#Cc1c(NCCO)nc(SCc2coc(-c3ccc(Cl)cc3)n2)c(C#N)c1-c1ccc(OCCO)cc1 [Example 117]
0.048 | 0.3 | 0.318 | C[C@H](O)COc1ccc(-c2c(C#N)c(N)nc(SCc3coc(-c4ccc(Cl)cc4)n3)c2C#N)cc1 [Example 106]
0.969 | 0.2 | 1.97 | N#Cc1c(N)nc(OCc2coc(-c3ccc(F)c(F)c3)n2)c(C#N)c1-c1ccc(OCCO)cc1 [Example 114]
0.698 | 0.4 | – | N#Cc1c(SCc2coc(-c3ccc(Cl)cc3)n2)nc(N2CCCC2)c(C#N)c1-c1ccc(OCCO)cc1 [Example 116, 2-({[2-(4-Chlorophenyl)-1,3-oxazol-4-yl]methyl}sulfanyl)-4-[4-(2-hydroxyethoxy)phenyl]-6-(pyrrolidin-1-yl)pyridine-3,5-dicarbonitrile]
– | 0.4 | – | N#Cc1c(NCCO)nc(OCc2coc(-c3ccc(Cl)cc3)n2)c(C#N)c1-c1ccc(OCCO)cc1 [Example 129]
0.226 | 0.4 | 0.072 | N#Cc1c(N)nc(SCc2coc(-c3ccc(F)cc3)n2)c(C#N)c1-c1ccc(OC[C@H](O)CO)cc1 [Example 101]
0.245 | 0.6 | – | N#Cc1c(OCc2coc(-c3ccc(Cl)cc3)n2)nc(N2CC(O)C2)c(C#N)c1-c1ccc(OCCO)cc1 [Example 130]
– | 0.3 | 1.95 | N#Cc1c(NC[C@@H](O)CO)nc(SCc2coc(-c3ccc(Cl)cc3)n2)c(C#N)c1-c1ccc(OCCO)cc1 [Example 119]
0.095 | 0.3 | 0.497 | N#Cc1c(N)nc(OCc2coc(-c3ccc(Cl)cc3)n2)c(C#N)c1-c1ccc(OCCO)cc1 [Example 110, 2-Amino-6-{[2-(4-chlorophenyl)-1,3-oxazol-4-yl]methoxy}-4-[4-(2-hydroxyethoxy)phenyl]pyridine-3,5-dicarbonitrile]
0.283 | 0.4 | 0.984 | N#Cc1c(SCc2coc(-c3ccc(Cl)cc3)n2)nc(N2CC[C@@H](O)C2)c(C#N)c1-c1ccc(OCCO)cc1 [Example 127]
0.237 | 0.1 | 1.05 | N#Cc1c(SCc2coc(-c3ccc(Cl)cc3)n2)nc(N2CC(O)C2)c(C#N)c1-c1ccc(OCCO)cc1 [Example 128]
0.078 | 0.5 | 0.684 | N#Cc1c(SCc2coc(-c3ccc(Cl)cc3)n2)nc(N2CCC2)c(C#N)c1-c1ccc(OCCO)cc1 [Example 126]
